Results from the supplement of paper PMC10307832.

How the values were obtained:
Assay in all cases: relative viability (nuclei count vs DMSO), 5 days (fraction); higher = more cells survive
[1] = compound: CN1CCN(CC1)C2=CC(=C(C=C2)NC3=NC(=C(S3)C(=O)C4=C(C=CC=C4Cl)Cl)N)OC [XMD14-99] + Nc1ncn([C@H]2C[C@H](O)[C@@H](CO)O2)c(=O)n1 [Decitabine] (partner 2 µM)
Outline: (§1)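 Dosing by pin tool came one day after lung cancer cell lines were seeded in 1536-well plates, using either one drug or a fixed anchor-drug dose plus five library-drug doses (not always all listed) in √10 steps. After 5 days, nuclei were counted on 4× images. Relative viability is treated-well nuclei count divided by vehicle-well nuclei count, and values are medians of duplicate plates.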

[2] = compound: N[C@@H]1CCCN(c2c(/C=C3\SC(=O)NC3=O)cccc2-c2ccccc2)C1 [AZD1208] + Cc1cc(Nc2cc(N3CCN(C)CC3)nc(Sc3ccc(NC(=O)C4CC4)cc3)n2)n[nH]1 [Tozasertib] (partner 0.1 µM)
Outline: as §1

[3] = compound: CN1CCN(CC1)C2=CC(=C(C=C2)NC3=NC(=C(S3)C(=O)C4=C(C=CC=C4Cl)Cl)N)OC [XMD14-99] + C[C@@H](Oc1cc(-c2cnn(C3CCNCC3)c2)cnc1N)c1c(Cl)ccc(F)c1Cl [Crizotinib] (partner 1 µM)
Outline: as §1

[4] = compound: N[C@@H]1CCCN(c2c(/C=C3\SC(=O)NC3=O)cccc2-c2ccccc2)C1 [AZD1208] + O=C(CCCCCCC(=O)Nc1ccccc1)NO [Vorinostat] (partner 1 µM)
Outline: as §1

Cell Line | relative viability ([1]; first compound 0.08 µM) | relative viability ([1]; first compound 0.8 µM) | relative viability ([1]; first compound 2.53 µM) | relative viability ([1]; first compound 8 µM) | relative viability ([2]; first compound 0.08 µM) | relative viability ([2]; first compound 0.253 µM) | relative viability ([2]; first compound 0.8 µM) | relative viability ([2]; first compound 2.53 µM) | relative viability ([2]; first compound 8 µM) | relative viability ([3]; first compound 0.08 µM) | relative viability ([3]; first compound 0.8 µM) | relative viability ([3]; first compound 2.53 µM) | relative viability ([3]; first compound 8 µM) | relative viability ([4]; first compound 0.08 µM) | relative viability ([4]; first compound 0.253 µM) | relative viability ([4]; first compound 0.8 µM) | relative viability ([4]; first compound 2.53 µM) | relative viability ([4]; first compound 8 µM)
RERF-LC-KJ | 0.737 | 0.674 | 0.665 | 0.506 | 0.505 | 0.423 | 0.56 | 0.519 | 0.384 | 0.891 | 0.836 | 0.845 | 0.699 | 0.646 | 0.668 | 0.7 | 0.658 | 0.598
BEN | 0.853 | 0.701 | 0.707 | 0.558 | 0.507 | 0.414 | 0.385 | 0.374 | 0.435 | 0.789 | 0.718 | 0.761 | 0.647 | 0.61 | 0.584 | 0.49 | 0.503 | 0.427
NCI-H1666 | 0.81 | 0.628 | 0.686 | 0.567 | 0.535 | 0.6 | 0.513 | 0.644 | 0.58 | 0.926 | 0.899 | 0.779 | 0.575 | 1.06 | 1.02 | 0.887 | 0.966 | 0.908
LC-2-ad | 0.776 | 0.727 | 0.777 | 0.745 | 0.397 | 0.381 | 0.355 | 0.363 | 0.318 | 0.424 | 0.461 | 0.478 | 0.414 | 0.716 | 0.703 | 0.685 | 0.704 | 0.669
Calu-6 | – | – | – | – | – | – | – | – | – | 0.807 | 0.756 | 0.747 | 0.513 | – | – | – | – | –
NCI-H2342 | 0.724 | 0.739 | 0.765 | 0.638 | 0.454 | 0.499 | 0.453 | 0.418 | 0.421 | – | – | – | – | 0.831 | 0.702 | 0.604 | 0.799 | 0.597
EBC-1 | – | – | – | – | – | – | – | – | – | 0.232 | 0.19 | 0.188 | 0.156 | – | – | – | – | –
NCI-H1299 | – | – | – | – | – | – | – | – | – | 0.946 | 0.898 | 0.998 | 0.769 | – | – | – | – | –
NCI-H522 | 0.703 | 0.648 | 0.554 | 0.672 | 0.534 | 0.619 | 0.492 | 0.514 | 0.446 | – | – | – | – | 0.691 | 0.75 | 0.768 | 0.828 | 0.836
IA-LM | – | – | – | – | – | – | – | – | – | 0.742 | 0.561 | 0.435 | 0.331 | 0.922 | 1.27 | 0.778 | 0.863 | 0.853
NCI-H1793 | 0.502 | 0.521 | 0.473 | 0.427 | 0.302 | 0.313 | 0.314 | 0.296 | 0.267 | – | – | – | – | 0.841 | 0.949 | 0.752 | 0.954 | 0.713
NCI-H2228 | – | – | – | – | 0.258 | 0.165 | 0.168 | 0.172 | 0.108 | 0.37 | 0.447 | 0.48 | 0.301 | 0.647 | 0.624 | 0.793 | 0.448 | 0.464
CAL-12T | – | – | – | – | 0.35 | 0.355 | 0.322 | 0.323 | 0.271 | 0.926 | 0.609 | 0.724 | 0.466 | 0.675 | 0.814 | 0.565 | 0.653 | 0.439
